The values that follow are results of earlier work, collected in patent US11039615B2, “Methods of processing chlorhexidine-containing polymerizable compositions and antimicrobial articles formed thereby” (entrotech life sciences, inc., priority 2014, dated 2021).

Each structure is given as a SMILES string.

For this series the following is noted: documented in Ranganathan 1996.

For `[H]/N=C(\N/C(=N/[H])NCCCCCCNC(=N)NC(=N)Nc1ccc(Cl)cc1)Nc1ccc(Cl)cc1` [chlorhexidine], the “temperature at which chlorhexidine decomposes to PCA” value was no less than 40 °C.
